Experimental findings from patent US12593841B2, “Antimicrobial mixture containing 4-(3-ethoxy-4-hydroxyphenyl)butan-2-one and an arginate compound, and cosmetic composition containing same” (L'OREAL, priority 2017, dated 2026) are described below.

What all share (type): cell-based
Assay [1] relates to Pseudomonas aeruginosa ATCC 9027. As to the kind of experiment: MIC / synergy (FIC index) microplate growth test on Pseudomonas aeruginosa. The text has this:
(§1) As regards the combinations tested, MICa with b and MICb with a are the respective concentrations of A and of B in the combinations which make it possible to obtain a microbial growth percentage of less than or equal to 25%.
(§2) When the FIC index value is less than or equal to 1, it is considered that the combination of test compounds has a synergistic effect.
The microbial strain Pseudomonas aeruginosa ATCC 9027 and a double-concentration nutrient broth liquid culture medium were used.
(§3) A 96-well microplate at an incubation temperature of 32.5° C. is used.
(§4) The incubation time of the microplate for the three abovementioned strains is from 18 to 24 hours aerobically.
(§5) A 10% (weight/volume) stock solution was prepared by mixing 1 g of compound in 9 ml of aqueous 1‰ agar solution. Successive dilutions were made with the 1‰ agar solution. • Tests of compounds A and B alone
(§6) 50 μL of each of the daughter solutions obtained containing compound A or B are added to the microplate wells. 100 μl of Sabouraud liquid nutrient broth inoculated at double concentration with the strain Candida albicans and 50 μl of aqueous 1‰0 agar solution are also added thereto. • Tests of compounds A and B as a mixture
(§7) 50 μL of each of the daughter solutions obtained containing compound A and 50 μL of each of the daughter solutions obtained containing compound B are added to the microplate wells. 100 μl of Sabouraud liquid nutrient broth inoculated at double concentration with the strain Candida albicans are also added thereto.
(§8) A positive microbial growth control was also prepared. The positive microbial growth control corresponds to a mixture of 100 μl of aqueous 1‰ agar solution with 100 μl of Sabouraud liquid nutrient broth inoculated at double concentration with the strain Candida albicans in the absence of compounds A and B.
(§9) An absorbance control was performed in parallel on compounds A and B alone. This control corresponds to 100 μL of double concentration sterile Sabouraud liquid nutrient broth +100 μl of double concentration compound A or B.
(§10) In the three cases (absorbance control, growth control and test), the final volume present in each of the microplate wells is 200 μL.
(§11) The test as described above (tests, absorbance control and growth control) was performed again to test the combination A+B on the strains Staphylococcus aureus and Pseudomonas aeruginosa.

Assay [2] deals with Staphylococcus aureus ATCC 6538. Kind of assay: MIC / synergy (FIC index) microplate growth test on Staphylococcus aureus.
Source text: as §1, §2
The microbial strain Staphylococcus aureus ATCC 6538 and a double-concentration nutrient broth liquid culture medium were used.
as §3, §4, §5, §6, §7, §8, §9, §10, §11

Assay [3] concerns Candida albicans ATCC 10231. Kind of assay: MIC / synergy (FIC index) microplate growth test on Candida albicans.
Source text: as §1, §2
The microbial strain Candida albicans ATCC 10231 and a double-concentration Sabouraud broth liquid culture medium were used.
as §3, §4, §5, §6, §7, §8, §9, §10
In the two cases (test and control), the inoculum represents the concentration of the strain Candida albicans present in the final volume of the wells (200 μL) and is between 2 and 6×10^5 cfu/ml of Candida albicans.

[4] abbreviates: weight % of active material, growth <= 25%.

With `CCOc1cc(CCC(C)=O)ccc1O` [A, 4-(3-ethoxy-4-hydroxyphenyl)butan-2-one], the microbial growth percentage is listed as 99% in assay [1] (0.125 weight % A alone (0 B)); 46% in assay [1] (0.25 weight % A alone (0 B)); 37% in assay [1] (0.5 weight % A alone (0 B)); 41% in assay [1] (1 weight % A alone (0 B)); 19% in assay [1] (2 weight % A alone (0 B)); 58% in assay [2] (0.125 weight % A alone (0 B)). In addition, the microbial growth percentage in assay [2] (0.25 weight % A alone (0 B)) came to 60%; in assay [2] (0.5 weight % A alone (0 B)), 0%; in assay [3] (0.025 weight % A alone (0 B)) it was 80%; in assay [3] (0.05 weight % A alone (0 B)), 62%; in assay [3] (0.1 weight % A alone (0 B)), 24%; in assay [3] (0.2 weight % A alone (0 B)), 3%. Further, the “% MIC of A alone” value in assay [1] (setting [4]) came to 2%; in assay [2] (setting [4]), 0.5%; in assay [3] (setting [4]), 0.2%.

For `CCCCCCCCCCCC(=O)N[C@@H](CCCNC(=N)N)C(=O)OCC.Cl` [B, ethyl N-lauroyl arginate hydrochloride, reference compound], the microbial growth percentage was determined as 37% in assay [1] (0.0025 weight % B alone (0 A)); 10% in assay [1] (0.005 weight % B alone (0 A)); 71% in assay [2] (0.00025 weight % B alone (0 A)); 0% in assay [2] (0.0005 weight % B alone (0 A)); 28% in assay [3] (0.0025 weight % B alone (0 A)); 9% in assay [3] (0.005 weight % B alone (0 A)). Further, the “% MIC of B alone” value worked out at 0.005% in assay [1] (setting [4]), 0.0005% in assay [2] (setting [4]) and 0.005% in assay [3] (setting [4]).
